Measured values: patent publication US8354451B2, “Treatment of microbial infections with compounds that inhibit 4-hydroxyphenylpyruvate dioxygenase” (The UWM Research Foundation, Inc., priority 2009, dated 2013)

How the values were obtained:
Assay type in all cases: cell-based, Burkholderia cenocepacia
B. cenocepacia MH1J = assay: Pigment (pyomelanin) production, supernatant OD597; conditions: 24 h culture
Description: FIG. 1. NTBC decreases pigment production in B. cenocepacia. B. cenocepacia strains C5424 and MH1J were cultured in presence or absence of NTBC in flasks during 24 h. An aliquot of this culture was used to take the picture in A. To quantify pigment production, 1 ml of culture was centrifuged at 14,000 rpm by 5 min to pellet bacteria. The pigment in the supernatant was quantified at an OD597 nm. The graphic (B) was generated with the results of two independent experiments. Values represent the mean±SD of two independent experiments. ***, p<0.001, Mock (untreated) versus treated with 10 and 100 μM of NTBC.
To test the ability of NTBC 2-[2-nitro-4-(trifluoromethyl)benzoyl]-1,3-cyclohexanedione (NTBC) to decrease pigment production by Burkholderia cenocepacia strains, two strains with the ability to produce pigment were used: (i) the previously described B. cenocepacia C5424, and (ii) B. cenocepacia MH1J, strain with susceptibility to gentamicin.
Bacteria were grown in 10 ml of Luria-Bertani (LB) broth at 37° C. with shaking, using 250 mL-flasks. B. cenocepacia C5424 produced significant pigment at 24 h of culture and MH1J required 48 h to form high pigment production. To quantify the pigment produced by both strains a 1 mL culture was taken at 24 hrs of incubation and the bacteria were pelleted by centrifugation at 14,000 r.p.m. for 5 min. […]

[1] = tested on: B. cenocepacia C5424 and MH1J; assay: Bacterial viability, LIVE/DEAD fluorescence microscopy; conditions: 10 μM and 100 μM NTBC, 24 h culture
Description: Viability was tested by the LIVE/DEAD® method (Molecular probes, Invitrogen). 1 mL of bacterial culture was collected at 24 h, washed twice with phosphate buffered saline (PBS), and the pellet resuspended in 1 mL of Dubecco's modified Eagle's medium (DMEM) supplemented with 10% fetal bovine serum (FBS). Bacteria were incubated for 15 min at RT in the dark, 5 mL of the culture was used for fluorescence microscopy. Images were acquired using a QIMAGING® (Burnaby, British Columbia, Canada) cooled charge coupled-device camera on an Axioscope 2 (Carl Zeiss, Thornwood, N.Y.) microscope with an X100/1.3 numerical aperture Plan-Neofluor objective and a 50-W mercury arc lamp. Images were digitally processed using the Northern Eclipse version 6.0 imaging analysis software (Empix Imaging, Mississauga, Ontario, Canada).
(§1) B. cenocepacia C5424 and MH1J were cultured in the presence of 10 μM and 100 μM NTBC and assayed for growth rates using the BIOSCREEN® system (FIG. 2). Bacterial viability was examined under similar treatment conditions by fluorescence microscopy using the LIVE/DEAD® kit (Molecular Probes, Invitrogen).

[2] = tested on: B. cenocepacia C5424 and MH1J; assay: Growth rate, BIOSCREEN growth curve analysis; conditions: 10 μM and 100 μM NTBC, OD600 over 24 h
Description: FIG. 2. Effect of NTBC on growth and viability of B. cenocepacia. B. cenocepacia C5424 (upper graph) and MH1J (lower graph) were cultured in 300 ml of LB by triplicates. Cultures were started at an OD600 of 0.1 and OD600 readings were taken every 30 min over 24 h using the BIOSCREEN® system.
To assess growth rate, overnight cultures were inoculated into fresh medium with a starting optical density at 600 (OD600) of 0.1. Growth rates were determined in 100-well microtiter plates by use of a BIOSCREEN® C automated microbiology growth curve analysis system (MTX Lab Systems, Inc., Vienna, Va.) under high-amplitude shaking conditions.
as §1

## O=C1CCCC(=O)C1C(=O)c1ccc(C(F)(F)F)cc1[N+](=O)[O-] [NTBC, 2-(2-nitro-4-trifluoromethylbenzoyl)-1,3-cyclohexanedione]
B. cenocepacia MH1J; 10 μM NTBC
  pigment production relative to untreated MH1J: 31.53±3.08%
B. cenocepacia MH1J; 100 μM NTBC
  pigment production relative to untreated MH1J: 36.41±1.80%
[1]
  effect on viability: does not affect growth rate or viability
[2]
  effect on growth rate: does not affect growth rate
